PubChem BioAssay AID2060624 (Molecular Pharmacology Branch, DTP, NCI, 2025)
Values joined by “and” are separate entries in the source; they are usually repeats but may differ in a detail not shown here. Identical values can stand only once.

Tested on: 217524-143-R1-J4-PDC spheroids with HUVEC/MSC, viability
Test: Anticancer human tumor 217524-143-R1-J4-PDC patient-derived pancreatic carcinoma cell line growth inhibition [CLK]
Conditions: for viability, T/C: stronger effect = lower value
Outline: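 Patient-derived tumor cells grown as complex spheroids with HUVEC endothelial cells and mesenchymal stem cells, treated with drug combinations. Concentrations descend in half-log steps from near clinical Cmax, or from 10 microM if Cmax unknown.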

[1] = curve of first compound, second compound 0.0316 µM
[2] = curve of first compound, second compound 0.1 µM
[3] = curve of first compound, second compound 0.316 µM
[4] = curve of first compound, second compound 1 µM
[5] = curve of first compound, second compound 3.16 µM
[6] = curve of first compound, second compound 10 µM
[7] = second compound 0.0316 µM, first compound 0.0316 µM
[8] = second compound 0.0316 µM, first compound 0.1 µM
[9] = second compound 0.0316 µM, first compound 0.316 µM
[10] = second compound 0.0316 µM, first compound 1 µM
[11] = second compound 0.0316 µM, first compound 3.16 µM
[12] = second compound 0.0316 µM, first compound 10 µM
[13] = second compound 0.1 µM, first compound 0.0316 µM
[14] = second compound 0.1 µM, first compound 0.1 µM
[15] = second compound 0.1 µM, first compound 0.316 µM
[16] = second compound 0.1 µM, first compound 1 µM
[17] = second compound 0.1 µM, first compound 3.16 µM
[18] = second compound 0.1 µM, first compound 10 µM
[19] = second compound 0.316 µM, first compound 0.0316 µM
[20] = second compound 0.316 µM, first compound 0.1 µM
[21] = second compound 0.316 µM, first compound 0.316 µM
[22] = second compound 0.316 µM, first compound 1 µM
[23] = second compound 0.316 µM, first compound 3.16 µM
[24] = second compound 0.316 µM, first compound 10 µM
[25] = second compound 1 µM, first compound 0.0316 µM
[26] = second compound 1 µM, first compound 0.1 µM
[27] = second compound 1 µM, first compound 0.316 µM
[28] = second compound 1 µM, first compound 1 µM
[29] = second compound 1 µM, first compound 3.16 µM
[30] = second compound 1 µM, first compound 10 µM
[31] = second compound 3.16 µM, first compound 0.0316 µM
[32] = second compound 3.16 µM, first compound 0.1 µM
[33] = second compound 3.16 µM, first compound 0.316 µM
[34] = second compound 3.16 µM, first compound 1 µM
[35] = second compound 3.16 µM, first compound 3.16 µM
[36] = second compound 3.16 µM, first compound 10 µM
[37] = second compound 10 µM, first compound 0.0316 µM
[38] = second compound 10 µM, first compound 0.1 µM
[39] = second compound 10 µM, first compound 0.316 µM
[40] = second compound 10 µM, first compound 1 µM
[41] = second compound 10 µM, first compound 3.16 µM
[42] = second compound 10 µM, first compound 10 µM
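Note: spheroids exposed to agents for seven days before reading.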
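Throughout, for viability, T/C: 100% = DMSO vehicle control viability.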

## CC(Nc1ccc2c(c1)OCCn1cc(N3C(=O)OCC3C(F)F)nc1-2)C(N)=O (configuration not stated) + CN1CCN(c2cc(C(=O)Nc3cc4cc(-c5cnn(C)c5)ccc4cn3)ccn2)CC1
[1]
  IC50: 61.8 nM
[2]
  IC50: < 31.6 nM
[3]
  IC50: < 31.6 nM
[4]
  IC50: < 31.6 nM
[5]
  IC50: < 31.6 nM
[6]
  IC50: < 31.6 nM
[7]
  viability, T/C: 75.1%
[8]
  viability, T/C: 30.5%
[9]
  viability, T/C: 16.9%
[10]
  viability, T/C: 6.57%
[11]
  viability, T/C: 5.62%
[12]
  viability, T/C: 3.9%
[13]
  viability, T/C: 40.8%
[14]
  viability, T/C: 24.6%
[15]
  viability, T/C: 10.2%
[16]
  viability, T/C: 5.26%
[17]
  viability, T/C: 4.73%
[18]
  viability, T/C: 3.98%
[19]
  viability, T/C: 19.2%
[20]
  viability, T/C: 9.36%
[21]
  viability, T/C: 6.98%
[22]
  viability, T/C: 4.68%
[23]
  viability, T/C: 3.77%
[24]
  viability, T/C: 3.27%
[25]
  viability, T/C: 2.47%
[26]
  viability, T/C: 1.63%
[27]
  viability, T/C: 1.31%
[28]
  viability, T/C: 1.2%
[29]
  viability, T/C: 1.03%
[30]
  viability, T/C: 0.93%
[31]
  viability, T/C: 0.62%
[32]
  viability, T/C: 0.64%
[33]
  viability, T/C: 0.73%
[34]
  viability, T/C: 0.58%
[35]
  viability, T/C: 0.75%
[36]
  viability, T/C: 0.64%
[37]
  viability, T/C: 0.11%
[38]
  viability, T/C: 0.18%
[39]
  viability, T/C: 0.18%
[40]
  viability, T/C: 0.13%
[41]
  viability, T/C: 0.27%
[42]
  viability, T/C: 0.2%

## C=C(F)C(=O)N1CCN(c2nc(OCC3CCCN3C)nc3c2CCN(c2cccc4cccc(Cl)c24)C3)CC1CC#N (configuration not stated) + CN1CCN(c2cc(C(=O)Nc3cc4cc(-c5cnn(C)c5)ccc4cn3)ccn2)CC1
[1]
  IC50: 5100 nM
[2]
  IC50: 2300 nM
[3]
  IC50: < 31.6 nM
[4]
  IC50: < 31.6 nM
[5]
  IC50: < 31.6 nM
[6]
  IC50: < 31.6 nM
[7]
  viability, T/C: 71.2%
[8]
  viability, T/C: 89.9%
[9]
  viability, T/C: 91.9%
[10]
  viability, T/C: 87.9%
[11]
  viability, T/C: 82.2%
[12]
  viability, T/C: 4.47%
[13]
  viability, T/C: 61.6%
[14]
  viability, T/C: 54.7%
[15]
  viability, T/C: 53.9%
[16]
  viability, T/C: 50.8%
[17]
  viability, T/C: 49.1%
[18]
  viability, T/C: 3.1%
[19]
  viability, T/C: 25%
[20]
  viability, T/C: 24.5%
[21]
  viability, T/C: 31%
[22]
  viability, T/C: 22.8%
[23]
  viability, T/C: 18.4%
[24]
  viability, T/C: 1.05%
[25]
  viability, T/C: 1.86%
[26]
  viability, T/C: 2.01%
[27]
  viability, T/C: 2.61%
[28]
  viability, T/C: 1.74%
[29]
  viability, T/C: 1.47%
[30]
  viability, T/C: 0.1%
[31]
  viability, T/C: 0.87%
[32]
  viability, T/C: 1.12%
[33]
  viability, T/C: 0.66%
[34]
  viability, T/C: 0.73%
[35]
  viability, T/C: 0.71%
[36]
  viability, T/C: 0.13%
[37]
  viability, T/C: 0.3%
[38]
  viability, T/C: 0.27%
[39]
  viability, T/C: 0.3%
[40]
  viability, T/C: 0.31%
[41]
  viability, T/C: 0.44%
[42]
  viability, T/C: 0.22%

## C#Cc1c(F)ccc2cc(O)cc(-c3ncc4c(N5CC6CCC(C5)N6)nc(OCC56CCCN5CC(F)C6)nc4c3F)c12 (configuration not stated)
Compound 0.0316 µM
  viability, T/C: 101% and 98%
Compound 0.1 µM
  viability, T/C: 81.7% and 90.2%
Compound 0.316 µM
  viability, T/C: 88.5% and 86.4%
Compound 1 µM
  viability, T/C: 85% and 85.9%
Compound 3.16 µM
  viability, T/C: 86.7% and 68%
Compound 10 µM
  viability, T/C: 59% and 77.1%
Curve of compound
  IC50: > 10000 nM

## CC(=O)O[C@H]1C(=O)[C@@]2(C)[C@H]([C@H](OC(=O)c3ccccc3)[C@]3(O)C[C@H](OC(=O)[C@H](O)[C@@H](NC(=O)c4ccccc4)c4ccccc4)C(C)=C1C3(C)C)[C@]1(OC(C)=O)CO[C@@H]1C[C@@H]2O + CNC(=O)c1ccc(Nc2nc(OC3CCCC3)c3c(-c4ccc5nc(C)oc5c4)c[nH]c3n2)c(OC)c1
[1]
  IC50: < 31.6 nM
[2]
  IC50: < 31.6 nM
[3]
  IC50: < 31.6 nM
[4]
  IC50: < 31.6 nM
[5]
  IC50: < 31.6 nM
[6]
  IC50: < 31.6 nM
[7]
  viability, T/C: 19.7%
[8]
  viability, T/C: 14.3%
[9]
  viability, T/C: 16.9%
[10]
  viability, T/C: 16.6%
[11]
  viability, T/C: 25.4%
[12]
  viability, T/C: 30.8%
[13]
  viability, T/C: 31.3%
[14]
  viability, T/C: 26.3%
[15]
  viability, T/C: 31.9%
[16]
  viability, T/C: 28%
[17]
  viability, T/C: 33.3%
[18]
  viability, T/C: 43.4%
[19]
  viability, T/C: 34.9%
[20]
  viability, T/C: 30.4%
[21]
  viability, T/C: 37%
[22]
  viability, T/C: 39.8%
[23]
  viability, T/C: 34.5%
[24]
  viability, T/C: 33%
[25]
  viability, T/C: 20.6%
[26]
  viability, T/C: 27.6%
[27]
  viability, T/C: 33.4%
[28]
  viability, T/C: 39.4%
[29]
  viability, T/C: 35.9%
[30]
  viability, T/C: 33%
[31]
  viability, T/C: 20.9%
[32]
  viability, T/C: 26.1%
[33]
  viability, T/C: 31%
[34]
  viability, T/C: 34.8%
[35]
  viability, T/C: 37.6%
[36]
  viability, T/C: 31.2%
[37]
  viability, T/C: 19.1%
[38]
  viability, T/C: 27.5%
[39]
  viability, T/C: 29%
[40]
  viability, T/C: 36.2%
[41]
  viability, T/C: 40.2%
[42]
  viability, T/C: 32.2%

## Cn1ncnc1[C@H]1c2n[nH]c(=O)c3cc(F)cc(c23)N[C@@H]1c1ccc(F)cc1 + CNC(=O)c1ccc(Nc2nc(OC3CCCC3)c3c(-c4ccc5nc(C)oc5c4)c[nH]c3n2)c(OC)c1
[1]
  IC50: > 100 nM
[2]
  IC50: < 0.316 nM
[3]
  IC50: < 0.316 nM
[4]
  IC50: < 0.316 nM
[5]
  IC50: < 0.316 nM
[6]
  IC50: < 0.316 nM
Second compound 0.0316 µM, first compound 0.000316 µM
  viability, T/C: 101%
Second compound 0.0316 µM, first compound 0.001 µM
  viability, T/C: 68.8%
Second compound 0.0316 µM, first compound 0.00316 µM
  viability, T/C: 86.1%
Second compound 0.0316 µM, first compound 0.01 µM
  viability, T/C: 85%
[7]
  viability, T/C: 83.4%
[8]
  viability, T/C: 75.5%
Second compound 0.1 µM, first compound 0.000316 µM
  viability, T/C: 43.6%
Second compound 0.1 µM, first compound 0.001 µM
  viability, T/C: 44.8%
Second compound 0.1 µM, first compound 0.00316 µM
  viability, T/C: 41.6%
Second compound 0.1 µM, first compound 0.01 µM
  viability, T/C: 37.5%
[13]
  viability, T/C: 38.6%
[14]
  viability, T/C: 31.4%
Second compound 0.316 µM, first compound 0.000316 µM
  viability, T/C: 34.5%
Second compound 0.316 µM, first compound 0.001 µM
  viability, T/C: 42.8%
Second compound 0.316 µM, first compound 0.00316 µM
  viability, T/C: 34.1%
Second compound 0.316 µM, first compound 0.01 µM
  viability, T/C: 39%
[19]
  viability, T/C: 39.9%
[20]
  viability, T/C: 37.3%
Second compound 1 µM, first compound 0.000316 µM
  viability, T/C: 23.3%
Second compound 1 µM, first compound 0.001 µM
  viability, T/C: 32.8%
Second compound 1 µM, first compound 0.00316 µM
  viability, T/C: 30.6%
Second compound 1 µM, first compound 0.01 µM
  viability, T/C: 23.3%
[25]
  viability, T/C: 21.3%
[26]
  viability, T/C: 25.8%
Second compound 3.16 µM, first compound 0.000316 µM
  viability, T/C: 28.6%
Second compound 3.16 µM, first compound 0.001 µM
  viability, T/C: 23.7%
Second compound 3.16 µM, first compound 0.00316 µM
  viability, T/C: 27.2%
Second compound 3.16 µM, first compound 0.01 µM
  viability, T/C: 23.2%
[31]
  viability, T/C: 24.4%
[32]
  viability, T/C: 23.6%
Second compound 10 µM, first compound 0.000316 µM
  viability, T/C: 29%
Second compound 10 µM, first compound 0.001 µM
  viability, T/C: 25.5%
Second compound 10 µM, first compound 0.00316 µM
  viability, T/C: 24.7%
Second compound 10 µM, first compound 0.01 µM
  viability, T/C: 24.6%
[37]
  viability, T/C: 24.3%
[38]
  viability, T/C: 21.2%

## NC(=O)C(=Cn1cnc(-c2cc(C(F)(F)F)cc(C(F)(F)F)c2)n1)c1cncnc1
Compound 0.00949 µM
  viability, T/C: 73.8% and 67.8%
Compound 0.03 µM
  viability, T/C: 49.3% and 36.5%
Compound 0.0949 µM
  viability, T/C: 27.8% and 21.1%
Compound 0.3 µM
  viability, T/C: 21.7% and 27.9%
Compound 0.949 µM
  viability, T/C: 25.6% and 28.4%
Compound 3 µM
  viability, T/C: 23.2% and 20.4%
Curve of compound
  IC50: 29 nM and 18.2 nM
